{"source": "paper PMC8214221", "about": "“Sequence determinants in the cathelicidin LL-37 that promote inflammation via presentation of RNA to scavenger receptors” (The Journal of Biological Chemistry, 2021)", "note": "Residues, ends and D or L forms follow the SMILES beside them.", "data": [{"test_system": "normal human epidermal keratinocytes (NHEKs)", "experiment": "LDH release cytotoxicity assay in keratinocytes", "type": "cell-based", "conditions": "minimal concentration giving 50% LDH release by NHEKs", "source_text": "Since LL-34 was the minimal truncation mutant of LL-37 that retained both antimicrobial and immune modulatory activity, we prepared a series of synthetic peptides with sequential substitutions of alanine at each amino acid position of the LL-34 parent peptide (Table 1). We compared the minimum inhibitory concentration (MIC) for the LL-34 parent peptide and the alanine mutants (LL-34 peptides—L1A and R34A) against methicillin-resistant Staphylococcus aureus strain USA300 (Fig. 1A). LL-34 peptides were incubated at concentrations of 0 to 100 μM with bacteria. The minimal concentration at which no growth was observed was noted after 18 h of incubation. […] Because of these changes in the MIC against S. aureus between the mutants, we investigated the effective toxicity profile of the peptides in normal human epidermal keratinocytes (NHEKs) by lactate dehydrogenase (LDH) release assay (Table 1). […] Most other peptides were cytotoxic at a minimal concentration of 10 μM, whereas LL-34—K15A was toxic at a concentration of 2.5 μM.\nLDH cytotoxicity assay was performed according to manufacturer's instructions (Thermo Fisher Scientific). Culture supernatants from keratinocytes were used fresh for LDH assay after experimental treatments.", "units": {"Minimal cytotoxic concentration in NHEK (LD50)": "µM"}, "values": [{"smiles": "CC[C@H](C)[C@H](NC(=O)[C@H](CCCCN)NC(=O)[C@H](CCC(=O)O)NC(=O)[C@H](CCCCN)NC(=O)[C@H](CO)NC(=O)[C@H](CCCCN)NC(=O)[C@H](CCCNC(=N)N)NC(=O)[C@H](Cc1ccccc1)NC(=O)[C@H](Cc1ccccc1)NC(=O)[C@H](CC(=O)O)NC(=O)CNC(=O)[C@H](CC(C)C)NC(=O)[C@@H](N)CC(C)C)C(=O)NCC(=O)N[C@@H](CCCCN)C(=O)N[C@@H](CCC(=O)O)C(=O)N[C@@H](Cc1ccccc1)C(=O)N[C@@H](CCCCN)C(=O)N[C@@H](CCCNC(=N)N)C(=O)N[C@H](C(=O)N[C@H](C(=O)N[C@@H](CCC(N)=O)C(=O)N[C@@H](CCCNC(=N)N)C(=O)N[C@H](C(=O)N[C@@H](CCCCN)C(=O)N[C@@H](CC(=O)O)C(=O)N[C@@H](Cc1ccccc1)C(=O)N[C@@H](CC(C)C)C(=O)N[C@@H](CCCNC(=N)N)C(=O)N[C@@H](CC(N)=O)C(=O)N[C@@H](CC(C)C)C(=O)N[C@H](C(=O)N[C@@H](C)C(=O)N[C@@H](CCCNC(=N)N)C(=O)O)C(C)C)[C@@H](C)CC)C(C)C)[C@@H](C)CC", "note": "[LL-34—P33A] (H-LLGDFFRKSKEKIGKEFKRIVQRIKDFLRNLVAR-OH; N-terminus and C-terminus assumed)", "Minimal cytotoxic concentration in NHEK (LD50)": 10}, {"smiles": "CC[C@H](C)[C@H](NC(=O)[C@H](CCCCN)NC(=O)[C@H](CCC(=O)O)NC(=O)[C@H](CCCCN)NC(=O)[C@H](CO)NC(=O)[C@H](CCCCN)NC(=O)[C@H](CCCNC(=N)N)NC(=O)[C@H](Cc1ccccc1)NC(=O)[C@H](Cc1ccccc1)NC(=O)[C@H](CC(=O)O)NC(=O)CNC(=O)[C@H](CC(C)C)NC(=O)[C@@H](N)CC(C)C)C(=O)NCC(=O)N[C@@H](CCCCN)C(=O)N[C@@H](CCC(=O)O)C(=O)N[C@@H](Cc1ccccc1)C(=O)N[C@@H](CCCCN)C(=O)N[C@@H](CCCNC(=N)N)C(=O)N[C@H](C(=O)N[C@H](C(=O)N[C@@H](C)C(=O)N[C@@H](CCCNC(=N)N)C(=O)N[C@H](C(=O)N[C@@H](CCCCN)C(=O)N[C@@H](CC(=O)O)C(=O)N[C@@H](Cc1ccccc1)C(=O)N[C@@H](CC(C)C)C(=O)N[C@@H](CCCNC(=N)N)C(=O)N[C@@H](CC(N)=O)C(=O)N[C@@H](CC(C)C)C(=O)N[C@H](C(=O)N1CCC[C@H]1C(=O)N[C@@H](CCCNC(=N)N)C(=O)O)C(C)C)[C@@H](C)CC)C(C)C)[C@@H](C)CC", "note": "[LL-34—Q22A] (H-LLGDFFRKSKEKIGKEFKRIVARIKDFLRNLVPR-OH; N-terminus and C-terminus assumed)", "Minimal cytotoxic concentration in NHEK (LD50)": 5}, {"smiles": "CC[C@H](C)[C@H](NC(=O)[C@H](CCCCN)NC(=O)[C@H](CCC(=O)O)NC(=O)[C@H](CCCCN)NC(=O)[C@H](CO)NC(=O)[C@H](CCCCN)NC(=O)[C@H](C)NC(=O)[C@H](Cc1ccccc1)NC(=O)[C@H](Cc1ccccc1)NC(=O)[C@H](CC(=O)O)NC(=O)CNC(=O)[C@H](CC(C)C)NC(=O)[C@@H](N)CC(C)C)C(=O)NCC(=O)N[C@@H](CCCCN)C(=O)N[C@@H](CCC(=O)O)C(=O)N[C@@H](Cc1ccccc1)C(=O)N[C@@H](CCCCN)C(=O)N[C@@H](CCCNC(=N)N)C(=O)N[C@H](C(=O)N[C@H](C(=O)N[C@@H](CCC(N)=O)C(=O)N[C@@H](CCCNC(=N)N)C(=O)N[C@H](C(=O)N[C@@H](CCCCN)C(=O)N[C@@H](CC(=O)O)C(=O)N[C@@H](Cc1ccccc1)C(=O)N[C@@H](CC(C)C)C(=O)N[C@@H](CCCNC(=N)N)C(=O)N[C@@H](CC(N)=O)C(=O)N[C@@H](CC(C)C)C(=O)N[C@H](C(=O)N1CCC[C@H]1C(=O)N[C@@H](CCCNC(=N)N)C(=O)O)C(C)C)[C@@H](C)CC)C(C)C)[C@@H](C)CC", "note": "[LL-34—R7A] (H-LLGDFFAKSKEKIGKEFKRIVQRIKDFLRNLVPR-OH; N-terminus and C-terminus assumed)", "Minimal cytotoxic concentration in NHEK (LD50)": 5}, {"smiles": "CC[C@H](C)[C@H](NC(=O)[C@H](C)NC(=O)[C@H](CCCCN)NC(=O)[C@H](Cc1ccccc1)NC(=O)[C@H](CCC(=O)O)NC(=O)[C@H](CCCCN)NC(=O)CNC(=O)[C@@H](NC(=O)[C@H](CCCCN)NC(=O)[C@H](CCC(=O)O)NC(=O)[C@H](CCCCN)NC(=O)[C@H](CO)NC(=O)[C@H](CCCCN)NC(=O)[C@H](CCCNC(=N)N)NC(=O)[C@H](Cc1ccccc1)NC(=O)[C@H](Cc1ccccc1)NC(=O)[C@H](CC(=O)O)NC(=O)CNC(=O)[C@H](CC(C)C)NC(=O)[C@@H](N)CC(C)C)[C@@H](C)CC)C(=O)N[C@H](C(=O)N[C@@H](CCC(N)=O)C(=O)N[C@@H](CCCNC(=N)N)C(=O)N[C@H](C(=O)N[C@@H](CCCCN)C(=O)N[C@@H](CC(=O)O)C(=O)N[C@@H](Cc1ccccc1)C(=O)N[C@@H](CC(C)C)C(=O)N[C@@H](CCCNC(=N)N)C(=O)N[C@@H](CC(N)=O)C(=O)N[C@@H](CC(C)C)C(=O)N[C@H](C(=O)N1CCC[C@H]1C(=O)N[C@@H](CCCNC(=N)N)C(=O)O)C(C)C)[C@@H](C)CC)C(C)C", "note": "[LL-34—R19A] (H-LLGDFFRKSKEKIGKEFKAIVQRIKDFLRNLVPR-OH; N-terminus and C-terminus assumed)", "Minimal cytotoxic concentration in NHEK (LD50)": 10}, {"smiles": "CC[C@H](C)[C@H](NC(=O)[C@H](CCCCN)NC(=O)[C@H](CCC(=O)O)NC(=O)[C@H](CCCCN)NC(=O)[C@H](CO)NC(=O)[C@H](CCCCN)NC(=O)[C@H](CCCNC(=N)N)NC(=O)[C@H](Cc1ccccc1)NC(=O)[C@H](Cc1ccccc1)NC(=O)[C@H](CC(=O)O)NC(=O)CNC(=O)[C@H](CC(C)C)NC(=O)[C@@H](N)CC(C)C)C(=O)NCC(=O)N[C@@H](CCCCN)C(=O)N[C@@H](CCC(=O)O)C(=O)N[C@@H](Cc1ccccc1)C(=O)N[C@@H](CCCCN)C(=O)N[C@@H](CCCNC(=N)N)C(=O)N[C@H](C(=O)N[C@H](C(=O)N[C@@H](CCC(N)=O)C(=O)N[C@@H](CCCNC(=N)N)C(=O)N[C@H](C(=O)N[C@@H](CCCCN)C(=O)N[C@@H](CC(=O)O)C(=O)N[C@@H](Cc1ccccc1)C(=O)N[C@@H](CC(C)C)C(=O)N[C@@H](C)C(=O)N[C@@H](CC(N)=O)C(=O)N[C@@H](CC(C)C)C(=O)N[C@H](C(=O)N1CCC[C@H]1C(=O)N[C@@H](CCCNC(=N)N)C(=O)O)C(C)C)[C@@H](C)CC)C(C)C)[C@@H](C)CC", "note": "[LL-34—R29A] (H-LLGDFFRKSKEKIGKEFKRIVQRIKDFLANLVPR-OH; N-terminus and C-terminus assumed)", "Minimal cytotoxic concentration in NHEK (LD50)": 5}, {"smiles": "CC[C@H](C)[C@H](NC(=O)[C@H](CCCCN)NC(=O)[C@H](CCC(=O)O)NC(=O)[C@H](CCCCN)NC(=O)[C@H](C)NC(=O)[C@H](CCCCN)NC(=O)[C@H](CCCNC(=N)N)NC(=O)[C@H](Cc1ccccc1)NC(=O)[C@H](Cc1ccccc1)NC(=O)[C@H](CC(=O)O)NC(=O)CNC(=O)[C@H](CC(C)C)NC(=O)[C@@H](N)CC(C)C)C(=O)NCC(=O)N[C@@H](CCCCN)C(=O)N[C@@H](CCC(=O)O)C(=O)N[C@@H](Cc1ccccc1)C(=O)N[C@@H](CCCCN)C(=O)N[C@@H](CCCNC(=N)N)C(=O)N[C@H](C(=O)N[C@H](C(=O)N[C@@H](CCC(N)=O)C(=O)N[C@@H](CCCNC(=N)N)C(=O)N[C@H](C(=O)N[C@@H](CCCCN)C(=O)N[C@@H](CC(=O)O)C(=O)N[C@@H](Cc1ccccc1)C(=O)N[C@@H](CC(C)C)C(=O)N[C@@H](CCCNC(=N)N)C(=O)N[C@@H](CC(N)=O)C(=O)N[C@@H](CC(C)C)C(=O)N[C@H](C(=O)N1CCC[C@H]1C(=O)N[C@@H](CCCNC(=N)N)C(=O)O)C(C)C)[C@@H](C)CC)C(C)C)[C@@H](C)CC", "note": "[LL-34—S9A] (H-LLGDFFRKAKEKIGKEFKRIVQRIKDFLRNLVPR-OH; N-terminus and C-terminus assumed)", "Minimal cytotoxic concentration in NHEK (LD50)": 5}, {"smiles": "CC[C@H](C)[C@H](NC(=O)[C@H](CCCCN)NC(=O)[C@H](CCC(=O)O)NC(=O)[C@H](CCCCN)NC(=O)[C@H](CO)NC(=O)[C@H](CCCCN)NC(=O)[C@H](CCCNC(=N)N)NC(=O)[C@H](Cc1ccccc1)NC(=O)[C@H](Cc1ccccc1)NC(=O)[C@H](CC(=O)O)NC(=O)CNC(=O)[C@H](CC(C)C)NC(=O)[C@@H](N)CC(C)C)C(=O)NCC(=O)N[C@@H](CCCCN)C(=O)N[C@@H](CCC(=O)O)C(=O)N[C@@H](Cc1ccccc1)C(=O)N[C@@H](CCCCN)C(=O)N[C@@H](CCCNC(=N)N)C(=O)N[C@H](C(=O)N[C@@H](C)C(=O)N[C@@H](CCC(N)=O)C(=O)N[C@@H](CCCNC(=N)N)C(=O)N[C@H](C(=O)N[C@@H](CCCCN)C(=O)N[C@@H](CC(=O)O)C(=O)N[C@@H](Cc1ccccc1)C(=O)N[C@@H](CC(C)C)C(=O)N[C@@H](CCCNC(=N)N)C(=O)N[C@@H](CC(N)=O)C(=O)N[C@@H](CC(C)C)C(=O)N[C@H](C(=O)N1CCC[C@H]1C(=O)N[C@@H](CCCNC(=N)N)C(=O)O)C(C)C)[C@@H](C)CC)[C@@H](C)CC", "note": "[LL-34—V21A] (H-LLGDFFRKSKEKIGKEFKRIAQRIKDFLRNLVPR-OH; N-terminus and C-terminus assumed)", "Minimal cytotoxic concentration in NHEK (LD50)": 5}]}]}
